Legend:
ryegrass, Italian [1] = test: Test C preemergence; format: in vivo, Lolium multiflorum
Method in brief: (§1)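 Pre: seeds in loam/sand, directed soil spray. Post: 1–2 leaf plants, 2–10 cm. Cmpd in non-phytotoxic solvent + surfactant. Greenhouse 10 d; visual rating vs untreated, 0 = none, 100 = complete control.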

pigweed, palmer [2] = test: Test C preemergence; format: in vivo, Amaranthus palmeri
Method in brief: as §1

foxtail, giant [3] = test: Test C preemergence; format: in vivo, Setaria faberi
Method in brief: as §1

corn [4] = test: Test C postemergence; format: in vivo, Zea mays; conditions: 10 days, 0 to 100 scale (0 no effect, 100 complete control)
Method in brief: as §1

kochia [5] = test: Test C preemergence; format: in vivo, Bassia scoparia
Method in brief: as §1

corn [6] = test: Test C preemergence; format: in vivo, Zea mays
Method in brief: as §1

oat, wild [7] = test: Test C postemergence; format: in vivo, Avena fatua; conditions: 10 days, 0 to 100 scale (0 no effect, 100 complete control)
Method in brief: as §1

kochia [8] = test: Test C postemergence; format: in vivo, Bassia scoparia; conditions: 10 days, 0 to 100 scale (0 no effect, 100 complete control)
Method in brief: as §1

horseweed = test: Test C postemergence; format: in vivo, Erigeron canadensis; conditions: 10 days, 0 to 100 scale (0 no effect, 100 complete control)
Method in brief: as §1

ducksalad = test: Test D flooded paddy test; format: in vivo, Heteranthera limosa; conditions: 250 g ai/ha, applied to paddy water, visual rating after 13 to 14 days, scale 0 to 100 (0 no effect, 100 complete control)
Method in brief: (§2)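 Compounds go straight into paddy water over 2-leaf plants in pots flooded to 3 cm. Greenhouse holding lasts 13 to 14 days. Injury is scored by eye against controls from 0 (none) to 100 (complete control).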

pigweed, palmer [9] = test: Test C postemergence; format: in vivo, Amaranthus palmeri; conditions: 10 days, 0 to 100 scale (0 no effect, 100 complete control)
Method in brief: as §1

galium = test: Test C postemergence; format: in vivo, Galium aparine; conditions: 10 days, 0 to 100 scale (0 no effect, 100 complete control)
Method in brief: as §1

wheat [10] = test: Test C preemergence; format: in vivo, Triticum aestivum
Method in brief: as §1

ragweed [11] = test: Test C preemergence; format: in vivo, Ambrosia artemisiifolia
Method in brief: as §1

barnyardgrass [12] = test: Test C preemergence; format: in vivo, Echinochloa crusgalli
Method in brief: as §1

barnyardgrass [13] = test: Test D flooded paddy test; format: in vivo, Echinochloa crus-galli; conditions: 250 g ai/ha, applied to paddy water, visual rating after 13 to 14 days, scale 0 to 100 (0 no effect, 100 complete control)
Method in brief: as §2

soybean [14] = test: Test C postemergence; format: in vivo, Glycine max; conditions: 10 days, 0 to 100 scale (0 no effect, 100 complete control)
Method in brief: as §1

rice = test: Test D flooded paddy test; format: in vivo, Oryza sativa; conditions: 250 g ai/ha, applied to paddy water, visual rating after 13 to 14 days, scale 0 to 100 (0 no effect, 100 complete control)
Method in brief: as §2

ragweed [15] = test: Test C postemergence; format: in vivo, Ambrosia artemisiifolia; conditions: 10 days, 0 to 100 scale (0 no effect, 100 complete control)
Method in brief: as §1

oat, wild [16] = test: Test C preemergence; format: in vivo, Avena fatua
Method in brief: as §1

soybean [17] = test: Test C preemergence; format: in vivo, Glycine max
Method in brief: as §1

wheat [18] = test: Test C postemergence; format: in vivo, Triticum aestivum; conditions: 10 days, 0 to 100 scale (0 no effect, 100 complete control)
Method in brief: as §1

sedge, umbrella = test: Test D flooded paddy test; format: in vivo, Cyperus difformis; conditions: 250 g ai/ha, applied to paddy water, visual rating after 13 to 14 days, scale 0 to 100 (0 no effect, 100 complete control)
Method in brief: as §2

ryegrass, Italian [19] = test: Test C postemergence; format: in vivo, Lolium multiflorum; conditions: 10 days, 0 to 100 scale (0 no effect, 100 complete control)
Method in brief: as §1

foxtail, giant [20] = test: Test C postemergence; format: in vivo, Setaria faberi; conditions: 10 days, 0 to 100 scale (0 no effect, 100 complete control)
Method in brief: as §1

barnyardgrass [21] = test: Test C postemergence; format: in vivo, Echinochloa crusgalli; conditions: 10 days, 0 to 100 scale (0 no effect, 100 complete control)
Method in brief: as §1

blackgrass [22] = test: Test C postemergence; format: in vivo, Alopecurus myosuroides; conditions: 10 days, 0 to 100 scale (0 no effect, 100 complete control)
Method in brief: as §1

blackgrass [23] = test: Test C preemergence; format: in vivo, Alopecurus myosuroides
Method in brief: as §1

[24] = 500 g ai/ha, preemergence, 0 to 100 scale (0 no effect, 100 complete control)
[25] = Preemergence, 125 g ai/ha, 0 to 100 scale, 0 no effect, 100 complete control

Structure (SMILES): Cc1ncnn1-c1cc(C(=O)N2CC(C(F)(F)F)Oc3c(Cl)cccc32)ccn1 (racemic) [Compound 333]
- Ryegrass, Italian plant response rating (ryegrass, Italian [1]; [24]): 40
- Plant response rating, Ryegrass, Italian (ryegrass, Italian [1]; [25]): 30
- Pigweed, Palmer plant response rating (pigweed, palmer [2]; [24]): 30
- Plant response rating, Pigweed, Palmer (pigweed, palmer [2]; [25]): 0
- Foxtail, Giant plant response rating (foxtail, giant [3]; [24]): 80
- Plant response rating, Foxtail, Giant (foxtail, giant [3]; [25]): 0
- Plant response rating, Corn (corn [4]; 500 g ai/ha, postemergence): 20
- Plant response rating, Corn (corn [4]; Postemergence, 125 g ai/ha): 10
- Kochia plant response rating (kochia [5]; [24]): 10
- Plant response rating, Kochia (kochia [5]; [25]): 0
- Corn plant response rating (corn [6]; [24]): 0
- Plant response rating, Corn (corn [6]; [25]): 0
- Plant response rating, Oat, Wild (oat, wild [7]; 500 g ai/ha, postemergence): 0
- Plant response rating, Oat, Wild (oat, wild [7]; Postemergence, 125 g ai/ha): 0
- Plant response rating, Kochia (kochia [8]; 500 g ai/ha, postemergence): 50
- Plant response rating, Kochia (kochia [8]; Postemergence, 125 g ai/ha): 30
- Plant response rating, Horseweed (horseweed; 500 g ai/ha, postemergence): 0
- Plant response rating, Horseweed (horseweed; Postemergence, 125 g ai/ha): 0
- Plant response rating, Ducksalad (Flood) (ducksalad): 0
- Plant response rating, Pigweed, Palmer (pigweed, palmer [9]; 500 g ai/ha, postemergence): 20
- Plant response rating, Pigweed, Palmer (pigweed, palmer [9]; Postemergence, 125 g ai/ha): 0
- Plant response rating, Galium (galium; 500 g ai/ha, postemergence): 60
- Plant response rating, Galium (galium; Postemergence, 125 g ai/ha): 0
- Wheat plant response rating (wheat [10]; [24]): 0
- Plant response rating, Wheat (wheat [10]; [25]): 0
- Ragweed plant response rating (ragweed [11]; [24]): 0
- Plant response rating, Ragweed (ragweed [11]; [25]): 0
- Barnyardgrass plant response rating (barnyardgrass [12]; [24]): 0
- Plant response rating, Barnyardgrass (barnyardgrass [12]; [25]): 0
- Plant response rating, Barnyardgrass (Flood) (barnyardgrass [13]): 0
- Plant response rating, Soybean (soybean [14]; 500 g ai/ha, postemergence): 50
- Plant response rating, Soybean (soybean [14]; Postemergence, 125 g ai/ha): 50
- Plant response rating, Rice (Flood) (rice): 0
- Plant response rating, Ragweed (ragweed [15]; 500 g ai/ha, postemergence): 10
- Plant response rating, Ragweed (ragweed [15]; Postemergence, 125 g ai/ha): 0
- Oat, Wild plant response rating (oat, wild [16]; [24]): 0
- Plant response rating, Oat, Wild (oat, wild [16]; [25]): 0
- Soybean plant response rating (soybean [17]; [24]): 0
- Plant response rating, Soybean (soybean [17]; [25]): 0
- Plant response rating, Wheat (wheat [18]; 500 g ai/ha, postemergence): 10
- Plant response rating, Wheat (wheat [18]; Postemergence, 125 g ai/ha): 10
- Plant response rating, Sedge, Umbrella (Flood) (sedge, umbrella): 0
- Plant response rating, Ryegrass, Italian (ryegrass, Italian [19]; 500 g ai/ha, postemergence): 10
- Plant response rating, Ryegrass, Italian (ryegrass, Italian [19]; Postemergence, 125 g ai/ha): 0
- Plant response rating, Foxtail, Giant (foxtail, giant [20]; 500 g ai/ha, postemergence): 40
- Plant response rating, Foxtail, Giant (foxtail, giant [20]; Postemergence, 125 g ai/ha): 20
- Plant response rating, Barnyardgrass (barnyardgrass [21]; 500 g ai/ha, postemergence): 10
- Plant response rating, Barnyardgrass (barnyardgrass [21]; Postemergence, 125 g ai/ha): 10
- Plant response rating, Blackgrass (blackgrass [22]; 500 g ai/ha, postemergence): 20
- Plant response rating, Blackgrass (blackgrass [22]; Postemergence, 125 g ai/ha): 0
- Blackgrass plant response rating (blackgrass [23]; [24]): 0
- Plant response rating, Blackgrass (blackgrass [23]; [25]): 0
